This note sets out measurements from patent US20250213736A1, “SCISSION-ENHANCED NUCLEAR IMAGING AND TREATMENT” (The General Hospital Corporation, priority 2022, published 2025).

The data set can be described thus: LCMS analysis of DOTA-TCO-NHS linker immolation after Tz treatment in PBS (pH 7.4). The class given is physicochemical. To be noted: PBS with tetrazine (Tz-amine) added; 100 μM DOTA linker treated with 10 mM Tz-amine, PBS pH 7.4, LCMS; read-out: kinetics of linker immolation T1/2. The procedure:
FIG. 6A contains line plots showing LCMS analysis of DOTA-TCO-NHS with varying ratios of HK-Tz added in PBS (pH 7.4). DOTA-TCO-NHS was synthesized as described in FIG. 3C, Characterized by NMR and then subjected to Tz treatment. Aliquots of 100 μM DOTA linker were treated with 10 mM Tz-amine and analyzed by LCMS after 30 min and 3 hours to determine the percentage of intact linker remaining. Shown are the kinetics of linker immolation (T1/2 12 min).

With `CN(CC(=O)NCCCNC(=O)CCOCCOCCOCCOCCC(=O)ON1C(=O)CCC1=O)C(=O)OC1/C=C/C(OC(=O)N(C)CC(=O)NCCCNC(=O)CN2CCN(CC(=O)O)CCN(CC(=O)O)CCN(CC(=O)O)CC2)CCCC1` (stereo not shown) [DOTA-TCO-NHS], the half-life at 100 μM worked out at 12 min.
